ChEMBL document CHEMBL3098053, “Inhibition of serine and proline racemases by substrate-product analogues” (Bioorg Med Chem Lett, 2014)

Key:
[1] = biological target: T1, Proline racemase (Clostridium sticklandii) (UniProt Q9L4Q3); assay: Inhibition of N-terminal 6xHis-tagged Clostridium sticklandii ATCC 12662 proline racemase expressed in Escherichia coli BL21(DE3) using L/D-proline as substrate at 142.5 mM preincubated for 5 mins by circular dichroism-based analysis; settings: Acetoanaerobium sticklandii
T1 sequence (whole entry): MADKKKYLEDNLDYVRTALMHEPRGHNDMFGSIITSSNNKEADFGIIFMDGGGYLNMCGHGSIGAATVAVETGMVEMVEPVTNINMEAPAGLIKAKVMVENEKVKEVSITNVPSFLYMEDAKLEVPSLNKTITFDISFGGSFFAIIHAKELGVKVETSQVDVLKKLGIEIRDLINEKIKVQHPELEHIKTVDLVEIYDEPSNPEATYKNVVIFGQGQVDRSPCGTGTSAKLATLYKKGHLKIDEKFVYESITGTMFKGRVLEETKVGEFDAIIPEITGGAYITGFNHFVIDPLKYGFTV

Proline racemase [2] = biological target: T2, Proline racemase (Clostridium sticklandii, UniProt Q9L4Q3); assay: Noncompetitive inhibition of N-terminal 6xHis-tagged Clostridium sticklandii ATCC 12662 proline racemase expressed in Escherichia coli BL21(DE3) using L/D-proline as substrate preincubated for 5 mins by Cornish-Bowden plot analysis; design: species or system Acetoanaerobium sticklandii
T2 sequence (Q9L4Q3 whole entry): T1 sequence (whole entry)

Proline racemase [3] = biological target: T2, Proline racemase; assay: Inhibition of N-terminal 6xHis-tagged Clostridium sticklandii ATCC 12662 proline racemase expressed in Escherichia coli BL21(DE3) using L/D-proline as substrate preincubated for 5 mins by circular dichroism-based analysis; design: species or system Acetoanaerobium sticklandii
Serine racemase [4] = biological target: T3, Serine racemase (Schizosaccharomyces pombe (strain 972 / ATCC 24843) (Fission yeast), UniProt O59791); assay: (§1) Mixed type inhibition of N-terminal 6xHis-tagged recombinant Schizosaccharomyces pombe 972 serine racemase expressed in Escherichia coli BL21(DE3) using L-serine as substrate assessed as enzyme-substrate-inhibitor complex preincubated for 2 mins followed by substrate addition by double reciprocal plot analysis
T3 sequence (O59791 whole entry): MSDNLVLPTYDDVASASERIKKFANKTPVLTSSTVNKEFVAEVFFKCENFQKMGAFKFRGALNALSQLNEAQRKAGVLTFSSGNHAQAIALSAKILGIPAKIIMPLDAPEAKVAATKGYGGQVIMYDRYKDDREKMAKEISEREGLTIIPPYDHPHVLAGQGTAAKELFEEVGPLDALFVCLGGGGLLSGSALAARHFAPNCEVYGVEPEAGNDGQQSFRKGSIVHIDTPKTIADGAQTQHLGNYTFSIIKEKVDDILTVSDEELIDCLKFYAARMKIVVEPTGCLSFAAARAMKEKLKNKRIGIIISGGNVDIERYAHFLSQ

Serine racemase [5] = biological target: T3, Serine racemase; assay: as §1, with “enzyme-inhibitor” for “enzyme-substrate-inhibitor”
[6] = biological target: T1, Proline racemase (Clostridium sticklandii); assay: Inhibition of Clostridium sticklandii ATCC 12662 proline racemase L-proline as substrate at 57 mM relative to control; settings: Acetoanaerobium sticklandii
[7] = biological target: T1, Proline racemase (Clostridium sticklandii); assay: Inhibition of Clostridium sticklandii ATCC 12662 proline racemase using L-proline as substrate at 0.36 mM relative to control; settings: Acetoanaerobium sticklandii
Proline racemase [8] = biological target: T2, Proline racemase; assay: Competitive inhibition of N-terminal 6xHis-tagged Clostridium sticklandii ATCC 12662 proline racemase expressed in Escherichia coli BL21(DE3) using L/D-proline as substrate; design: species or system Acetoanaerobium sticklandii

## O=C(O)C12CCC(CC1)N2
[1]
  inhibition: 29%

## O=C(O)C12CCCN1CCC2
Proline racemase [2]
  Ki: 111 mM
Proline racemase [3]
  IC50: 67 mM

## NC(CO)(CO)C(=O)O
Serine racemase [4]
  Ki: 661 mM
Serine racemase [5]
  Ki: 167 mM

## O=Cc1ccc[nH]1
[6]
  inhibition: 98%
[7]
  inhibition: 50%
Proline racemase [8]
  Ki: 0.0058 mM
